# Test results taken from article PMC7827406, “Structure–Activity Relationship (SAR) Study of Spautin-1 to Entail the Discovery of Novel NEK4 Inhibitors” (International Journal of Molecular Sciences, 2021).
# Like-named read-outs stand apart in the source and are kept apart here.
# How the values were obtained:
# Experiment in all cases: biochemical
# Design in all cases: Eurofins KinaseProfiler full panel at Km ATP, residual kinase activity (%) relative to DMSO
# [1] = target: CDK1/cyclinB(h) (Homo sapiens, UniProt P06493)
# Chain of CDK1/cyclinB(h) (P06493 whole entry): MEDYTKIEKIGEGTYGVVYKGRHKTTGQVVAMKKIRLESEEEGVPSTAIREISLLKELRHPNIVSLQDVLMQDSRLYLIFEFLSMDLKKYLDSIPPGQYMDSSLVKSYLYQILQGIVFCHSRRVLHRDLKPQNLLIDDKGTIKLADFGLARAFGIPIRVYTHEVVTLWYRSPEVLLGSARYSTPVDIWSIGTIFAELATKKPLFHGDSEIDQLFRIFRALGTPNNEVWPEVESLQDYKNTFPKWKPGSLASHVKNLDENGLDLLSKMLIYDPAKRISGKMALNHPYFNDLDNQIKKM
# Chain of CDK1/cyclinB(h) (P14635 whole entry partner): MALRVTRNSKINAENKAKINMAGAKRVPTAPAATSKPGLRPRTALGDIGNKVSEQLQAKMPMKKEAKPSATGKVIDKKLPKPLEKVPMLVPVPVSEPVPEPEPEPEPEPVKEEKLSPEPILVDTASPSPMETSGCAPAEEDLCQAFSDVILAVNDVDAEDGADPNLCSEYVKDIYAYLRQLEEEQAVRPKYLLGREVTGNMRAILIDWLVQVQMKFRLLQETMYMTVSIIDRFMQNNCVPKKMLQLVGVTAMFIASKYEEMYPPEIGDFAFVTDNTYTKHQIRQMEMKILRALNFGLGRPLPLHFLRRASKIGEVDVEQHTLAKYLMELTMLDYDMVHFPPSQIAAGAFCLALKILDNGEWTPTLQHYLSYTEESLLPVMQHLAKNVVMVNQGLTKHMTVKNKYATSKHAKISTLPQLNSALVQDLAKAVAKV
# Procedure, shortened: (§1)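 Radiometric kinase activity assays were run with ATP at Km and compounds at 10 µM, and remaining activity (%) was reported. A separate competitive binding screen measured DNA-tagged kinase displaced from immobilized active-site ligands by qPCR, giving percent kinase still bound at 10 µM compound in DMSO.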
# [2] = target: T1, Bmx(h) (Homo sapiens, UniProt P51813)
# T1 sequence (P51813 1-675): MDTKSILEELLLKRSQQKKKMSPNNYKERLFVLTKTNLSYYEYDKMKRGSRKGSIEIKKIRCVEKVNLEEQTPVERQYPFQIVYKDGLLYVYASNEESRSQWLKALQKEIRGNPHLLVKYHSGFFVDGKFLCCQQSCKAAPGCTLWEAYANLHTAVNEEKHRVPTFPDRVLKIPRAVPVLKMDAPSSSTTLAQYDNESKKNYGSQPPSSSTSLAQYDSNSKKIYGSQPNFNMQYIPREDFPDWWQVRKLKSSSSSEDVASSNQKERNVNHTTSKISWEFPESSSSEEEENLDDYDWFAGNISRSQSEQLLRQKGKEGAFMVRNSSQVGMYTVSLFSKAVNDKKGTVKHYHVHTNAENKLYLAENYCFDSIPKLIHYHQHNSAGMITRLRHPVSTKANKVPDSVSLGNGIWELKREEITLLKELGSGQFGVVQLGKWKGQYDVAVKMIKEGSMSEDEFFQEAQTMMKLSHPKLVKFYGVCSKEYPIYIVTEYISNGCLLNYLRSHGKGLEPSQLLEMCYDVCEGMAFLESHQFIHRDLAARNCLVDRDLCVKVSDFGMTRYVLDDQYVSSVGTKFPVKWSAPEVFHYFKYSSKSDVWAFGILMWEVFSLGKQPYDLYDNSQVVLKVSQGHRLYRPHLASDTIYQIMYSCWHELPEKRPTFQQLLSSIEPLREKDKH
# Procedure, shortened: as §1
# [3] = target: FGFR1(V561M)(h) (Homo sapiens, UniProt P11362, V561M)
# Procedure, shortened: as §1
# [4] = target: DDR1(h) (Homo sapiens, UniProt Q08345)
# Chain of DDR1(h) (Q08345 whole entry): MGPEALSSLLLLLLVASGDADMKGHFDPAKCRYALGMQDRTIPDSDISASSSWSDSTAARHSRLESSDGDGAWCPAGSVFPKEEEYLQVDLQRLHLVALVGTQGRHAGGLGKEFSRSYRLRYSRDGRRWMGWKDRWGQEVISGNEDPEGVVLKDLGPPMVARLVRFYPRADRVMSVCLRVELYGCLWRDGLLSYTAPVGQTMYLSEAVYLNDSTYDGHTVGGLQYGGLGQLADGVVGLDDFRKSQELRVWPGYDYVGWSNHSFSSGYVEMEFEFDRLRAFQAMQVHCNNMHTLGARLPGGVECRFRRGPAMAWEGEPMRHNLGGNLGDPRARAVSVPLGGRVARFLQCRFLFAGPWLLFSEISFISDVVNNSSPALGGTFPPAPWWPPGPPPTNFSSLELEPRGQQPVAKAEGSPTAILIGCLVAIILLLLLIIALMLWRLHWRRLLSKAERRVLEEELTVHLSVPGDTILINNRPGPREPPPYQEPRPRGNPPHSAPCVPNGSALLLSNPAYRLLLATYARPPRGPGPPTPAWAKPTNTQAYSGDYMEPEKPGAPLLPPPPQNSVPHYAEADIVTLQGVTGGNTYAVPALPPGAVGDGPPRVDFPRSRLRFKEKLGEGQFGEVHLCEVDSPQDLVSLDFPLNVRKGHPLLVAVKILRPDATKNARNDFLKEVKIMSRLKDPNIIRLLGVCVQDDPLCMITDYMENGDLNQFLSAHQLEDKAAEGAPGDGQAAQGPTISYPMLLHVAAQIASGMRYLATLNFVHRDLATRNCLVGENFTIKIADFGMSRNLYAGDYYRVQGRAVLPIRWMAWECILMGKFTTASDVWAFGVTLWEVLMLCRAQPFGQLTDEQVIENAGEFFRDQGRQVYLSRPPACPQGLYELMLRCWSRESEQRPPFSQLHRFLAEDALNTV
# Procedure, shortened: as §1
# [5] = target: T2, TBK1(h) (Homo sapiens, UniProt Q9UHD2)
# T2 sequence (Q9UHD2 1-729): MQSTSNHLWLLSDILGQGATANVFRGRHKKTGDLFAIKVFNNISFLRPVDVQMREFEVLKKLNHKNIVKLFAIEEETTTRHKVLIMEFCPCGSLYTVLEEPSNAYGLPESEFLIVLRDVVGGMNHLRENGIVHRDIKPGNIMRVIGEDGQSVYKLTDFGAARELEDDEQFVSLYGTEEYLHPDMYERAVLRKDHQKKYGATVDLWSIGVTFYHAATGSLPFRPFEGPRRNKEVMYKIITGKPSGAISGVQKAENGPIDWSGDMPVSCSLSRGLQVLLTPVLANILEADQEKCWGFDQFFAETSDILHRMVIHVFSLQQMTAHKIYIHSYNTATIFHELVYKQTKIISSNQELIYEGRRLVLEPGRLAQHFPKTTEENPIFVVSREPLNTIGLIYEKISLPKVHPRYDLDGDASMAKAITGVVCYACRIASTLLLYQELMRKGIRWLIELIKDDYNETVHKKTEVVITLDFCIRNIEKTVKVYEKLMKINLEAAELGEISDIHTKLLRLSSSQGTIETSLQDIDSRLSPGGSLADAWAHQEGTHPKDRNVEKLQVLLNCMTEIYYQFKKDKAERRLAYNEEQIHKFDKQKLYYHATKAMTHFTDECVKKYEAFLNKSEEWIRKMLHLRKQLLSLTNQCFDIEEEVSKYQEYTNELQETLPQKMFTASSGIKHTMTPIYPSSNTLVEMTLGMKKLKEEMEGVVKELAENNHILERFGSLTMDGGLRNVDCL
# Procedure, shortened: as §1
# [6] = target: T3, SAPK2a(h) (Homo sapiens, UniProt Q16539)
# T3 construct: gene MAPK14
# Procedure, shortened: as §1
# [7] = target: T4, ALK6(h) (Homo sapiens, UniProt O00238)
# T4 construct: gene BMPR1B
# T4 sequence (O00238 whole entry): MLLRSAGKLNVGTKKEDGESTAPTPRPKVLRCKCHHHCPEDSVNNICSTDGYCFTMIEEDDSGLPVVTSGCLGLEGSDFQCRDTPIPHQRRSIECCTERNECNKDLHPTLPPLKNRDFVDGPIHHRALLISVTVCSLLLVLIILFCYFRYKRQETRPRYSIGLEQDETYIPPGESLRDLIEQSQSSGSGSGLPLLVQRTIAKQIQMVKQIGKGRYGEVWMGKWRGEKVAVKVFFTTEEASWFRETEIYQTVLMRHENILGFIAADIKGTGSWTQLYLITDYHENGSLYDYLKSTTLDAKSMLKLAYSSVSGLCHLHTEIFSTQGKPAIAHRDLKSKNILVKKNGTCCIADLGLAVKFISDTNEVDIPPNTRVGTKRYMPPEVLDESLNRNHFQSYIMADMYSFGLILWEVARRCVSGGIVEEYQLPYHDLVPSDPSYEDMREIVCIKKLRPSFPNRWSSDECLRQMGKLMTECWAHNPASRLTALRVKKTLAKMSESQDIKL
# Procedure, shortened: as §1
# [8] = target: T5, PI3 Kinase (p110b/p85b)(m) (Mus musculus, UniProt Q8BTI9)
# T5 construct: gene Pik3cb
# T5 sequence (Q8BTI9 whole entry): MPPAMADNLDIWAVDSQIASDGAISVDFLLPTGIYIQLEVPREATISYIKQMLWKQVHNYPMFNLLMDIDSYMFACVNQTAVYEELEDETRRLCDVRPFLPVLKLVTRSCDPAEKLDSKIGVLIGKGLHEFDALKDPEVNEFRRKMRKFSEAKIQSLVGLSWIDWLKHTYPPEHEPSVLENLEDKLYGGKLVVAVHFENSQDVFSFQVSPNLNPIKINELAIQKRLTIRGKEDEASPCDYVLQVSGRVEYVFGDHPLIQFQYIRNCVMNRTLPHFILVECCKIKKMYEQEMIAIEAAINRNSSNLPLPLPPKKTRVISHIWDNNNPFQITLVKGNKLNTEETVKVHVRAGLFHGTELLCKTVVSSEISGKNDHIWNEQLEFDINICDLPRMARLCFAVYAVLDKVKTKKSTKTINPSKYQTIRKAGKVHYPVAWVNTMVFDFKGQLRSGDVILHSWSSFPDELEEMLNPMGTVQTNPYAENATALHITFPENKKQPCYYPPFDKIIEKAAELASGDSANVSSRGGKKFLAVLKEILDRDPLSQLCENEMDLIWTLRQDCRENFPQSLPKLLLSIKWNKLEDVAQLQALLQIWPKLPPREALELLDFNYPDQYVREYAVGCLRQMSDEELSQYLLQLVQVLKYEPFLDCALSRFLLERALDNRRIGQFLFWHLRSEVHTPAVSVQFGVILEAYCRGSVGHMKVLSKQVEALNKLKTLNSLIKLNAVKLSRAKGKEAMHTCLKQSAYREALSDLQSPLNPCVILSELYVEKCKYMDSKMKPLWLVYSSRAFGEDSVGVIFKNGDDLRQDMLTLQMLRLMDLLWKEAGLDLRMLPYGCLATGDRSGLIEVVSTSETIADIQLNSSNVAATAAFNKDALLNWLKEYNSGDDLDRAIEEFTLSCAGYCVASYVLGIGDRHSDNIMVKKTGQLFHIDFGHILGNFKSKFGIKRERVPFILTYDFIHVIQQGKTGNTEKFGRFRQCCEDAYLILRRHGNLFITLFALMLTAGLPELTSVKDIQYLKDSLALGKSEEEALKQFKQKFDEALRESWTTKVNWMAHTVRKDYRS
# T5 sequence (O08908 whole entry partner): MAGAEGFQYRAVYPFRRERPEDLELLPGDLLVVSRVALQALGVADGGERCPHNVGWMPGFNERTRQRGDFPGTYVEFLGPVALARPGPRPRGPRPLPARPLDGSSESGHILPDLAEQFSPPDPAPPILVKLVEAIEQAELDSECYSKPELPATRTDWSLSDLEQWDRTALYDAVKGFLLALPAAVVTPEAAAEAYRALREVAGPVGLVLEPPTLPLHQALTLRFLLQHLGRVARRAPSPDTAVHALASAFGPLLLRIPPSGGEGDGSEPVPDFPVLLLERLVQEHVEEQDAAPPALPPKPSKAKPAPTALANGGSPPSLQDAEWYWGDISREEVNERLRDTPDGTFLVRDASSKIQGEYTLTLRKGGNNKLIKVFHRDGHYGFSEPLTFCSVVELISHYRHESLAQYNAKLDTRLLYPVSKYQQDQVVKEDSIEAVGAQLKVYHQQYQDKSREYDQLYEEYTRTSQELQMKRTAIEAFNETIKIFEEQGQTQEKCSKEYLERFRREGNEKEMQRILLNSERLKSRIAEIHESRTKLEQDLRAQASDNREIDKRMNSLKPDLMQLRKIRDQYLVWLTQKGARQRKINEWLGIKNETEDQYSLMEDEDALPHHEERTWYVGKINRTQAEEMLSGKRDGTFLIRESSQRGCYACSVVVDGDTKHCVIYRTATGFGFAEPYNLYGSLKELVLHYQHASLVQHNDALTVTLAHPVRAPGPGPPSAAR
# Procedure, shortened: as §1
# [9] = target: T6, PRP4(h) (Homo sapiens, UniProt Q13523)
# T6 construct: gene PRP4K
# Procedure, shortened: as §1
# [10] = target: T7, Abl(h) (Homo sapiens, UniProt P00519)
# T7 construct: gene ABL1
# T7 sequence (P00519 whole entry): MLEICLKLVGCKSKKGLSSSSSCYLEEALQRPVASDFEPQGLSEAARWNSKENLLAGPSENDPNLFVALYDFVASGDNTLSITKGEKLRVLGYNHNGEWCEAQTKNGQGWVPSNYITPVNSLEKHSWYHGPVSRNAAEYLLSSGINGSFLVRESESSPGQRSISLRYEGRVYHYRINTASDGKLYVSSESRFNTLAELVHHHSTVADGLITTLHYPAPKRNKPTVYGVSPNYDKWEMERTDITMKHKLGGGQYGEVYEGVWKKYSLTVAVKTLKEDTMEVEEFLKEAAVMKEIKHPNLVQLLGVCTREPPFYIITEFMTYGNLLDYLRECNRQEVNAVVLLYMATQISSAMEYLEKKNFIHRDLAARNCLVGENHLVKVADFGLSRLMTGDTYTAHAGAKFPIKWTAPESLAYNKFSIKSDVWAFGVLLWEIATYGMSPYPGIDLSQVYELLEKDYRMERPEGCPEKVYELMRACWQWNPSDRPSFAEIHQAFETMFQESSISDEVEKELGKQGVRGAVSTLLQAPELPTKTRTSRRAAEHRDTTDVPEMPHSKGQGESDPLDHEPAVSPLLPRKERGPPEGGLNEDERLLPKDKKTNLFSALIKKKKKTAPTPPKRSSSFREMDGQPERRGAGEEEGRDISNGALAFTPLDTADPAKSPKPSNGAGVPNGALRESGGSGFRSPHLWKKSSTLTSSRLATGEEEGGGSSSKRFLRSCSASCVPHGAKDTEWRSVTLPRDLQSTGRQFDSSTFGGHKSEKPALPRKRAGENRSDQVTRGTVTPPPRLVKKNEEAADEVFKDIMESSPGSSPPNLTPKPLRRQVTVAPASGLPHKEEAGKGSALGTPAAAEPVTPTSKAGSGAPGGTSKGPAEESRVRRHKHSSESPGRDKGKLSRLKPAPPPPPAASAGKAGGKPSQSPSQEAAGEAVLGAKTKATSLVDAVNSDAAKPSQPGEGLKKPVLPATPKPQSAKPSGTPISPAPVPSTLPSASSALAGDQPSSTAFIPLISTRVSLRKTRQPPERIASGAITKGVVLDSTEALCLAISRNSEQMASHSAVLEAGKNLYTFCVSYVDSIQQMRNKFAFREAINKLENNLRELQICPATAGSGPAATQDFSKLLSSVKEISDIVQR
# Procedure, shortened: as §1
# [11] = read-out: Residual activity (%) 5ay
# [12] = read-out: Residual activity (%) Spautin-1 5aa
# [13] = read-out: Residual activity (%) 5at
# [14] = read-out: Residual activity (%) 5as
smiles,measurement,setting,value
"COc1ccc2ncnc(Nc3cccc(F)c3)c2c1 [5ay, N-(3-Fluorophenyl)-6-Methoxy-4-Quinazolinamine]",remaining activity at 10 µM,[1]; [11],72%
same,remaining activity at 10 µM,[2]; [11],77%
same,remaining activity at 10 µM,[3]; [11],108%
same,remaining activity at 10 µM,[4]; [11],7%
same,remaining activity at 10 µM,[5]; [11],117%
same,remaining activity at 10 µM,[6]; [11],99%
same,remaining activity at 10 µM,[7]; [11],87%
same,remaining activity at 10 µM,[8]; [11],89%
same,remaining activity at 10 µM,[9]; [11],100%
same,remaining activity at 10 µM,[10]; [11],74%
"Fc1ccc(CNc2ncnc3ccc(F)cc23)cc1 [5aa, 6-Fluoro-N-(4-fluorobenzyl)-4-Quinazolinamine]",remaining activity at 10 µM,[1]; [12],87%
same,remaining activity at 10 µM,[2]; [12],79%
same,remaining activity at 10 µM,[3]; [12],123%
same,remaining activity at 10 µM,[4]; [12],65%
same,remaining activity at 10 µM,[5]; [12],126%
same,remaining activity at 10 µM,[6]; [12],95%
same,remaining activity at 10 µM,[7]; [12],94%
same,remaining activity at 10 µM,[8]; [12],97%
same,remaining activity at 10 µM,[9]; [12],104%
same,remaining activity at 10 µM,[10]; [12],83%
"Fc1ccc2ncnc(NCCc3ccc(Cl)cc3)c2c1 [5at, N-[2-(4-Chlorophenyl)Ethyl]-6-Fluoro-4-Quinazolinamine]",remaining activity at 10 µM,[1]; [13],91%
same,remaining activity at 10 µM,[2]; [13],78%
same,remaining activity at 10 µM,[3]; [13],95%
same,remaining activity at 10 µM,[4]; [13],39%
same,remaining activity at 10 µM,[5]; [13],108%
same,remaining activity at 10 µM,[6]; [13],88%
same,remaining activity at 10 µM,[7]; [13],92%
same,remaining activity at 10 µM,[8]; [13],87%
same,remaining activity at 10 µM,[9]; [13],99%
same,remaining activity at 10 µM,[10]; [13],96%
"Fc1ccc(CCNc2ncnc3ccc(F)cc23)cc1 [5as, 6-Fluoro-N-[2-(4-Fluorophenyl)Ethyl]-4-Quinazolinamine]",remaining activity at 10 µM,[1]; [14],90%
same,remaining activity at 10 µM,[2]; [14],78%
same,remaining activity at 10 µM,[3]; [14],100%
same,remaining activity at 10 µM,[4]; [14],29%
same,remaining activity at 10 µM,[5]; [14],108%
same,remaining activity at 10 µM,[6]; [14],98%
same,remaining activity at 10 µM,[7]; [14],86%
same,remaining activity at 10 µM,[8]; [14],86%
same,remaining activity at 10 µM,[9]; [14],105%
same,remaining activity at 10 µM,[10]; [14],91%
